Assay: Human HepG2 cell viability assay in 384 well format
Assay type: toxicity, cell-based
Parameters: dose 125 nL, time 70.5 hour; cytotoxicity at 70.5 h: concentration not given beside the values
Settings: HepG2 cells, read-out: Inhibition

Structure (SMILES) | cytotoxicity at 70.5 h [%]
C[C@@H]1CN(CC(=O)NCc2ccccn2)C[C@]1(C)O | -1.62
CC(C)c1nc(C(=O)N2C[C@H]3CC[C@@H]2CN(C2CCOCC2)C3)cs1 | -7.88
CCCc1nc(N2CCCC3(CCNC3)C2)c2cnn(C)c2n1 (stereo unspecified) | -7.26
CN1[C@@H](c2ccccc2)[C@@H](C(=O)NCc2ccncc2)C[C@@]1(C)C(=O)O | -22.3
O=C(N1CCCC1)N1CCC(c2nccn2Cc2cscn2)CC1 | -5.23
COc1ccccc1CCN1CCCC(CN(C)Cc2cc(C)n[nH]2)C1 (stereo unspecified) | -8.68
CCCn1cc(-c2cc(C(=O)N(C)C)c3ccc(C)cc3n2)cn1 | -9.76
Cc1cc(CNC(=O)C2CCN(CC(N)=O)CC2)cc(C)n1 | -6.5
Cc1cnn(-c2cncc(C(N)=O)c2)c1 | -5.78
Cc1cccc(OCC2CCCN(C(=O)CCn3ccccc3=O)C2)c1 (stereo unspecified) | -11.2
CC(Cn1cccn1)C(=O)N1CCC(NS(C)(=O)=O)CC1 (stereo unspecified) | -6.23
Cc1cc(N[C@H](CO)COCc2ccccc2)n2nc(C)cc2n1 | -0.86
Cc1ccc(OC2(C(=O)O)CCN(C/C=C/c3ccco3)CC2)c(C)n1 | -7.06
CCC[C@@H]1CN(Cc2cc3c(cc2OC)OCCO3)C[C@H]1C(=O)O | -1.36
CSCC(=O)N[C@H]1CN(CC2CCOCC2)C[C@@H]1c1ccccc1 | -4.95
N#Cc1ccccc1CN1CCCC(c2nccn2CC2CCC2)C1 (stereo unspecified) | -11
c1ccc(-c2ncc(CN3CCCCC3CCn3cccn3)cn2)nc1 (stereo unspecified) | -4.71
CCc1cnc(N)nc1N[C@@H](C)c1ncccc1C | -12.4
COCCN1CCCC2(CCN(Cc3noc(C4CCCC4)n3)C2)C1=O (stereo unspecified) | -4.8
c1cn(Cc2ccc(N3CCCN(C4CCCC4)CC3)nc2)cn1 | 38.7
COc1ccc(F)c(CN2CCCC3(CCN(C(=O)CSC)C3)C2)c1 (stereo unspecified) | 8.81
Cc1cc(C(=O)N2CCCC(c3nccn3C)C2)cc(S(N)(=O)=O)c1C (stereo unspecified) | -5.68
COc1cccc([C@@H]2CN(C3CCCC3)C[C@H]2C(=O)O)c1 | -2.63

Structure (SMILES) | cytotoxicity at 70.5 h [%]
Cc1cnc(NC(C)Cc2cccnc2)nc1N(C)C (stereo unspecified) | 0.166
Cc1cc(C(N)=O)c(N2C[C@@H](C)[C@@](C)(O)C2)nc1C | -7.31
COc1ccc(CN2CC3(CCNCC3)CCC2=O)c(F)c1F | 15.3
CC(C)(C)c1cc(CNC(=O)c2cc(COc3ccccc3)[nH]n2)[nH]n1 | 8.48
Cc1nc(N)nc(C)c1CC(=O)N1CCC2(CC1)OCCCC2O (stereo unspecified) | -13.9
CCC[C@@H]1CN(Cc2cnc(-c3cccs3)nc2)C[C@H]1C(=O)O | -0.697
O=C(c1ccc(C2CCCN2)s1)N1CCC2(CCCO2)CC1 (stereo unspecified) | -6.68
CCn1c(C2CCNCC2)nn(CCn2ccc(C)n2)c1=O | -21.2
CCC(Nc1nc(C)nc2c1cnn2C)c1ncnn1CC (stereo unspecified) | -1.28
CC(C)c1cc(C(=O)N2CCN(c3ccc(F)c(Cl)c3)CC2)n(C)n1 | -4.92
COc1ccc(C2(C(=O)NCc3c(C)ncc4c3CCNC4)CC2)cc1 | -5.87
O=C(O)C1(Cc2ccc(F)cc2F)CCCN(Cc2ccncc2)C1 (stereo unspecified) | -5.04
Cc1nccn1CCN(C)c1nc(-c2ccc(Cl)cc2)nc2c1CNC2 | -3.99
Cn1c(CN2CCOCC2)nnc1C1CCCN(C(=O)CCC2CC2)C1 (stereo unspecified) | -6.43
CSc1nccc(N2CCC3(CCCN(CCc4ccccc4)C3)C2)n1 (stereo unspecified) | 6.79
COCCn1cncc1-c1nc2c([nH]1)CC(C)(C)CNC2=O | -4.1
CN1CCC(N2CCN(C(C(=O)O)c3cccc4c3OCC4)CC2)CC1 (stereo unspecified) | 2.04
O=C(NCCCSC1CCCCC1)C1NCCc2[nH]cnc21 (stereo unspecified) | -1.27
CC(=O)N1CCC(NCc2cccnc2N(C)Cc2ccccc2)CC1 | -6.72
CNc1ncc(CN(C)c2ncnc3onc(C)c23)cn1 | 8.52
CCOc1ccc(Cl)cc1C(C(=O)O)N1CCCC1 (stereo unspecified) | -2.88
Cc1nccn1CCN(C)C(=O)C1CCCN(C2CCOCC2)C1 (stereo unspecified) | -4.07
O=C(O)[C@@H]1CN(Cc2c[nH]c(CC3CCCC3)n2)C[C@H]1c1ccncc1 | -4.68

Structure (SMILES) | cytotoxicity at 70.5 h [%]
C=C(C)COc1cccc(CNCc2nc3ccccc3c(=O)[nH]2)c1 | 0.0265
O=C(c1cnccn1)N1C[C@@H]2CC[C@H](C1)N(S(=O)(=O)c1cccnc1)C2 | 7.54
O=C([C@H](O)c1ccccc1)N1CCN(c2cccc(Cl)c2)C(=O)C1 | 13.8
c1ccc(Cn2cccn2)c(CN2CCC3(CCCNC3)C2)c1 (stereo unspecified) | 0.428
COc1ccc(OC2CCN(C(=O)CCc3n[nH]c(C)n3)CC2)cc1 | 22.6
CCN1CCN(C[C@@H]2CN(Cc3cnc(C(C)C)nc3)C[C@@H]2CO)CC1 | 13.2
CCOC(=O)c1coc(N2CCN(Cc3cccc(OC)c3)C(=O)C2)n1 | 4.55
CN(C(=O)c1ccccc1NCC(=O)O)C(C1CC1)C1CC1 | -10.9
CN(CC(=O)N1CCC(Cc2cccc(C(N)=O)c2)C1)C1CCCC1 (stereo unspecified) | 20.8
CCCc1nc(CN(CC)C(=O)c2ccc3c(c2)nnn3C)no1 | -2.39
Cc1ccsc1-c1nccn1CCS(C)(=O)=O | 16.2
c1cc(-c2cn[nH]c2)ccc1CN1CCNCC1 | -3.83
Cc1ccc2nc(C3CCCN3Cc3cccc(CCN)c3)[nH]c2c1 (stereo unspecified) | -4.63
CC(c1nccs1)N(C)S(=O)(=O)NCc1ccccc1 (stereo unspecified) | 25.4
CCc1nc2ccccc2n1C(CC)C(=O)N(C)CCc1noc(C)n1 (stereo unspecified) | -20.6
OCC1(CC2CCCCO2)CCN(c2cnc3ccccc3n2)CC1 (stereo unspecified) | -12.6
COC(=O)N1CCCCC1C(=O)N1CCC(c2ccncc2)CC1 (stereo unspecified) | -3.09
COCCC1(CO)CCCN(C(=O)c2cc(C#N)c(=O)[nH]c2C)C1 (stereo unspecified) | -0.759
O=C(NCc1ccc2c(c1)OCO2)c1ccccc1C1CCNC1 (stereo unspecified) | 38
CN(Cc1cc2cc(F)ccc2[nH]1)C(=O)C1CC(=O)N(C(C)(C)C)C1 (stereo unspecified) | -1.21
CCC(C(=O)N(C)Cc1cc(-c2ccccc2)n[nH]1)n1cccn1 (stereo unspecified) | -13.1
c1ccc(CCCn2ccnc2-c2cn(C3CCNCC3)nn2)nc1 | 22.4
CCNc1ncc(C(=O)NC(c2ccccc2)c2ccco2)cn1 (stereo unspecified) | -9.5

Structure (SMILES) | cytotoxicity at 70.5 h [%]
Cc1ccc2cc(CNCCCO)c(=O)[nH]c2c1 | -2.37
CC(=O)N1CCCCC1c1cc(C(=O)N2CCOCC2)[nH]n1 (stereo unspecified) | -7.33
Cc1ccccc1CNc1nc(O)cc(C2CC(=O)N(C)C2)n1 (stereo unspecified) | -7.17
COc1cccc(CNc2nc(O)cc(C3CC(=O)N(C)C3)n2)c1 (stereo unspecified) | -11.6
CNc1cc(CNC(=O)c2ccccc2)nc(-c2ccncc2)n1 | 11.4
CNc1cc(CNC(=O)c2ccccn2)nc(-c2ccncc2)n1 | 11.9
O=C(CC1CCCC1)N1CCCC(c2n[nH]c3nccnc23)C1 (stereo unspecified) | -0.397
CC(=O)N1CCC(c2nccnc2Oc2ccccc2)CC1 | 1.62
Cn1ccc(C(=O)N2CCC(Cc3cccc4cccnc34)C2)n1 (stereo unspecified) | -5.77
Cn1ccc(C(=O)N2CCC(Cc3cnc4[nH]ccc4c3)CC2)n1 | -5.86
CNc1cccc(C2CCCN(C(=O)c3ccncc3)C2)n1 (stereo unspecified) | -2.97
Cn1ccnc1CN1CCCC(Cc2ccccn2)C1 (stereo unspecified) | 34.7
O=C(c1cccs1)N1CCC(O)(CN2CCc3ccccc3C2)C1 (stereo unspecified) | -2.95
COc1ccc(CN(C)[C@@H]2CN(C(=O)c3cccs3)C[C@H]2O)cc1 | -6.31
COc1cnc(C2(O)CCN(C(=O)c3cccnc3)CC2)c(OC)n1 | -4.88
COc1cnc(C2(O)CCN(C(=O)c3ccncc3)CC2)c(OC)n1 | -4.69
CC(=O)NCCc1cc(N2CCN(C(C)=O)CC2)nc(C2CC2)n1 | -5.29
CNc1cncc(C2CCCN2Cc2ccccn2)n1 (stereo unspecified) | -6.51
CC(=O)N1CCCCC1c1nc2c(c(N3CCCCC3)n1)CN(C)CC2 (stereo unspecified) | -1.02
CC(C)c1nccn1-c1cccc(C2CCN(C)CC2)n1 | 27.3
Cc1cc(-c2cnn(CCNC(=O)C3CCCO3)c2C2CC2)on1 (stereo unspecified) | -9.36
O=C(Cn1cccnc1=O)NC(Cc1ccsc1)c1ccccn1 (stereo unspecified) | -11.2
CS(=O)(=O)c1snnc1C1CCN(Cc2ccncc2)CC1 | -7.11

Structure (SMILES) | cytotoxicity at 70.5 h [%]
COc1cc2nc3n(c(=O)c2cc1OC)CCN(C(C)=O)CC3 | -13.7
CCCNCc1cc2c(C)cc(C)cc2n2c(=O)n(C)nc12 | -8.78
O=C(Cn1ccnc1)N1C[C@@H]2CC[C@H](Oc3ccccc3Cl)[C@@H]2C1 | 1.01
CN(C)CC(=O)N1C[C@@H]2CC[C@H](Oc3ccccc3Cl)[C@@H]2C1 | -15.6
CC(C)N1CCC(Cc2cnc(-c3cccc(C(=O)O)c3)cn2)C1 (stereo unspecified) | -19.1
CN(C)Cc1ccnc(C2CCCN2Cc2ccncc2)n1 (stereo unspecified) | 18.5
Cc1cnccc1CN1C[C@@H](O)[C@H](Oc2ccccc2)C1 | -5.34
CNC(=O)C1(c2cnccn2)CCCN1C(=O)c1ccccc1OC (stereo unspecified) | 13.3
Cc1ccccc1S(=O)(=O)N1CCCCC1c1ccn[nH]1 (stereo unspecified) | -28.4
Cc1cncc(C2CCCN(C(=O)c3ccc(C)[nH]c3=O)C2)n1 (stereo unspecified) | -4.5
Cc1cc(-c2cnn(CCNC(=O)C3CC3)c2C2CC2)on1 | 27
Cn1ccnc1CN1CCOCC(Cc2ccccn2)C1 (stereo unspecified) | -12.6
Cn1nc(C2CCCN(Cc3cccc(F)c3)C2)c2nccnc21 (stereo unspecified) | -4.33
OC[C@H]1CC[C@]2(CC1)CN(Cc1ccccn1)Cc1ccccc1O2 | -13.2
Cc1cc(C)n(CC(=O)NC(Cc2ccsc2)c2ccccn2)c(=O)n1 (stereo unspecified) | 13.9
Cc1ccc(=O)n(CC2(O)CCN(Cc3cc(C)c(O)c(C)c3)CC2)n1 | 22.7
Cc1nc(O)cc(C2CCN(Cc3cccc(F)c3F)C2)n1 (stereo unspecified) | -14.5
COc1ccc(F)c(CN2CCC(c3cc(O)nc(C)n3)C2)c1 (stereo unspecified) | 32.2
Cc1ccc(CN(Cc2cccnc2)C2CC(C)(C)NC(C)(C)C2)s1 | 9.23

From ChEMBL document CHEMBL3507680, “University of Dundee, Gates Library screen for HepG2 cell viability”
